# What was measured:
# [1] = Humidity stress experiments at 58% relative humidity; type: physicochemical; conditions: for Observations after humidity stress: 58% RH; for Physical state after humidity stress: 58% relative humidity for 4 or 10 days
# From the text: A sample of this enterostatin acetate, 1-hydroxy-2-naphthoic acid co-complex of the invention was stressed at 58% relative humidity for 4 or 10 days.
# A sample of this enterostatin chloride, 1-hydroxy-2-naphthoic acid co-complex of the invention was stressed at 58% relative humidity for 4 or 10 days.
# A sample of each co-complex of the above examples was stressed at 58% relative humidity for either 4 or 10 days.
# The cocrystal guests piperazine and 1-OH-2-napthoic acid were stressed at 58% relative humidity.
# [2] = Moisture balance (weight change with relative humidity); type: physicochemical
# Experimental: Analytical techniques discussed below were conventional unless otherwise specified. In particular, differential scanning calorimetry and moisture balance experiments were carried out according to standard techniques. NMR was in D2O.
# FIG. 3 provides moisture balance of this enterostatin acetate, 1-hydroxy-2-naphthoic acid co-complex of the invention.
Observations after humidity stress ([1]; 10 days),Observations after humidity stress ([1]; 4 days),Physical state after humidity stress [1],Observations after humidity stress ([1]; 14 days),Compound,also measured
,,,Light brown chunks,"O=C(O)c1ccc2ccccc2c1O [1-OH-2-napthoic acid, reference compound]","Observations after humidity stress ([1]; 14 days, listed as 1-OH-2-napthoic): remained a solid"
Tacky white goo,,,,"Enterostatin Sulfate, Hippuric Acid [Example 7]",
,,,Oil puddle,"C1CNCCN1 [Piperazine, reference compound]",Observations after humidity stress ([1]; 5 days): Oil puddle

# Second part, the compound before the results:
Compound,Observations after humidity stress ([1]; 10 days),Observations after humidity stress ([1]; 4 days),Physical state after humidity stress [1],Observations after humidity stress ([1]; 14 days),also measured
"Enterostatin Chloride, Camphoric Acid [Example 5]",Deliquesced,,,,
"Enterostatin Chloride, 1-Hydroxy-2-naphthoic Acid [Example 3]",,"Irregulars, chunks",remained solid,,
"Enterostatin Acetate, 1-Hydroxy-2-naphthoic Acid [Example 2]",,"Bits, broken glass",remained solid,,weight gain (moisture balance) ([2]; from 5 to 95% relative humidity): 22%; weight loss (moisture balance) ([2]; from 95 to 5% relative humidity): 24%
